The values below come from PubChem BioAssay (NCI).

Test systems include HOP-92 NSCLC; OVCAR-8 ovarian; RXF 393 renal; HL-60(TB) leukemia; OVCAR-4 ovarian; A549 NSCLC; HCT-15 colon; NCI/ADR-RES ovarian; HS 578T breast.
Holding throughout (assay): NCI anticancer screen, dose series, 48 h

“And” between values parts separate entries of the source, which are not always exact repeats. Identical values can stand only once.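 Growth conditions: 96-well plates. Treatment: test compound, 48 hours, 5 concentrations. Analysis: linear interpolation between bracketing concentrations; unreached endpoints set to highest concentration. GI50 = concentration required for 50% inhibition of growth. TGI denotes the concentration required for complete inhibition of growth.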

`CN(C)CCN(C)C(=O)c1cccc2cccc(C(=O)O)c12`: the TGI in the assay with HOP-92 NSCLC, with OVCAR-8 ovarian, with RXF 393 renal, in the assay with HL-60(TB) leukemia, in the assay on OVCAR-4 ovarian and in the assay with A549 NSCLC was more than 100 µM throughout. The TGI in the assay with HCT-15 colon was more than 100 µM.

As for `O=S1(=O)c2cc(S(=O)(=O)n3ccnc3)ccc2NC2=NCCCN21`, the TGI is more than 100 µM with HOP-92 NSCLC; 70 µM in the assay with OVCAR-8 ovarian; 36.4 µM in the assay on HL-60(TB) leukemia; more than 100 µM in the assay on OVCAR-4 ovarian; more than 100 µM in the assay on A549 NSCLC.

As for `N#CC(C(=O)CCC(=O)Nc1cccc(C(F)(F)F)c1)c1ccccc1` (centres undefined), the TGI in the assay on HOP-92 NSCLC, with OVCAR-8 ovarian, with RXF 393 renal, in the assay with HL-60(TB) leukemia, in the assay on OVCAR-4 ovarian and in the assay on A549 NSCLC was more than 100 µM each time. The TGI in the assay with HCT-15 colon is more than 100 µM.

Regarding `CC(C)CCCCCCCCCCCCC(=O)NCC(=O)NC1C(C)OC(Nc2ncnc3nc[nH]c23)C(O)C1O` (centres undefined), the TGI in the assay on NCI/ADR-RES ovarian was 0.0716 µM; in the assay on HOP-92 NSCLC, 0.00219 µM and 0.00491 µM; in the assay with OVCAR-8 ovarian, 0.00924 µM and 0.0182 µM; in the assay on RXF 393 renal, 0.0369 µM; with HL-60(TB) leukemia, 0.0046 µM and 0.0141 µM; in the assay with OVCAR-4 ovarian, 0.00803 µM. In addition, the TGI in the assay with A549 NSCLC is 0.472 µM and 0.19 µM; in the assay on HCT-15 colon, 3.84 µM. The GI50 in the assay with HOP-92 NSCLC was 0.000324 µM; in the assay on OVCAR-8 ovarian, 0.00187 µM; in the assay with RXF 393 renal it was 0.00101 µM; with HL-60(TB) leukemia, 0.001 µM; with OVCAR-4 ovarian, 0.0148 µM; with A549 NSCLC, 0.00324 µM. Also, in the assay on HCT-15 colon, the GI50 is 0.573 µM.

`O=C(CC1(O)C(=O)Nc2ccccc21)c1ccc(Cl)cc1Cl` (centres undefined): the TGI in the assay on HOP-92 NSCLC, with OVCAR-8 ovarian, with RXF 393 renal, with HL-60(TB) leukemia, with OVCAR-4 ovarian and with A549 NSCLC was more than 100 µM throughout. The TGI with HCT-15 colon was more than 100 µM.

In the case of `Brc1ccc(C=NC23CC4CC(CC(C4)C2)C3)cc1`, the TGI with HOP-92 NSCLC, with OVCAR-8 ovarian, with RXF 393 renal, with HL-60(TB) leukemia, in the assay with OVCAR-4 ovarian and in the assay on A549 NSCLC was more than 100 µM throughout. Moreover, the TGI with HCT-15 colon was more than 100 µM.

For `COc1ccccc1NC(=O)C1=C(C)NC(C)=C(C(=O)Nc2ccccc2OC)C1c1ccccc1Cl`, the TGI with HOP-92 NSCLC, in the assay with OVCAR-8 ovarian, in the assay with HL-60(TB) leukemia, in the assay on OVCAR-4 ovarian, in the assay on A549 NSCLC and with HCT-15 colon was more than 100 µM throughout.

As to `COc1ccc(-c2cc(=O)c3cc(C)c(C)c(C(=O)O)c3o2)cc1`, the TGI in the assay on OVCAR-8 ovarian, in the assay on RXF 393 renal, in the assay on HL-60(TB) leukemia, in the assay with OVCAR-4 ovarian, in the assay with A549 NSCLC and in the assay on HCT-15 colon was more than 100 µM each time.

In the case of `C[C@]12CCc3nonc3C1CC[C@@H]1C2CC[C@@]2(C)C1CC[C@@H]2O` (some centres undefined), the TGI with HOP-92 NSCLC, in the assay with OVCAR-8 ovarian, with RXF 393 renal, with HL-60(TB) leukemia, in the assay on OVCAR-4 ovarian and with A549 NSCLC was more than 100 µM each time. The same compound came in with a TGI in the assay on HCT-15 colon of more than 100 µM.

For the compound `COc1ccc(C[C@]23CCC(=O)N2CCc2cc(OC)c(O)cc23)cc1O`, the TGI was more than 100 µM in the assay on HOP-92 NSCLC; 78.6 µM with OVCAR-8 ovarian; more than 100 µM in the assay on RXF 393 renal; more than 100 µM with HL-60(TB) leukemia; more than 100 µM in the assay on OVCAR-4 ovarian; more than 100 µM with A549 NSCLC. Besides, in the assay with HCT-15 colon, the TGI was more than 100 µM.

In the case of `OCCN(CCO)c1nc(N2CCCCC2)c2nc(N(CCO)CCO)nc(N3CCCCC3)c2n1`, the TGI in the assay with NCI/ADR-RES ovarian was more than 100 µM; in the assay with HOP-92 NSCLC it was 36.4 µM; with OVCAR-8 ovarian it was more than 100 µM; in the assay with HL-60(TB) leukemia, 36.5 µM; in the assay on OVCAR-4 ovarian, more than 100 µM; in the assay on A549 NSCLC it was more than 100 µM. For the same compound, the TGI with HS 578T breast was 79.6 µM; with HCT-15 colon, more than 100 µM.

Consider `C[N+](C)(C)C1CC([N+](C)(C)C)C2c3ccccc3C21` (centres undefined), for which the TGI in the assay with HOP-92 NSCLC, with OVCAR-8 ovarian, in the assay on RXF 393 renal, in the assay on HL-60(TB) leukemia, in the assay with OVCAR-4 ovarian and in the assay on A549 NSCLC was more than 100 µM each time. Moreover, the TGI in the assay with HCT-15 colon is more than 100 µM.

Take `C1C[OH+]CCNCC[OH+]CC[OH+]CCN1.N.[Cl-].[Pt+4]`: the GI50 was 35.8 µM in the assay on HOP-92 NSCLC; 18.8 µM with OVCAR-8 ovarian; 22.8 µM with RXF 393 renal; more than 100 µM with HL-60(TB) leukemia; more than 100 µM in the assay with OVCAR-4 ovarian; 51.3 µM with A549 NSCLC. Further, the GI50 in the assay on HCT-15 colon was 40.4 µM. Also, the TGI is more than 100 µM with HOP-92 NSCLC; more than 100 µM in the assay with OVCAR-8 ovarian; 90.3 µM with RXF 393 renal; more than 100 µM in the assay on HL-60(TB) leukemia; more than 100 µM in the assay with OVCAR-4 ovarian; more than 100 µM in the assay with A549 NSCLC. This compound also showed a TGI with HCT-15 colon of more than 100 µM.

As to `CC[O-].CC[O-].O=C([CH-]C(=O)c1ccccc1)CCCCCCC(=O)[CH-]C(=O)c1ccccc1.[Ti+4]`, the GI50 in the assay on HOP-92 NSCLC, in the assay with OVCAR-8 ovarian, in the assay with RXF 393 renal, in the assay with HL-60(TB) leukemia, in the assay with OVCAR-4 ovarian and in the assay on A549 NSCLC was more than 100 µM each time. Besides, in the assay on HCT-15 colon, the GI50 was more than 100 µM. Also, the TGI with HOP-92 NSCLC, in the assay with OVCAR-8 ovarian, in the assay with RXF 393 renal, in the assay on HL-60(TB) leukemia, with OVCAR-4 ovarian and in the assay on A549 NSCLC was more than 100 µM each time. Besides, in the assay on HCT-15 colon, the TGI is more than 100 µM.

Take `O=C1NC2(CCCC2)C2CCCCC12O` (centres undefined): the TGI in the assay with HOP-92 NSCLC, in the assay on OVCAR-8 ovarian, in the assay on RXF 393 renal, in the assay with HL-60(TB) leukemia, in the assay on OVCAR-4 ovarian and with A549 NSCLC was more than 100 µM in each case. Moreover, the TGI with HCT-15 colon was more than 100 µM.
